Test results: US20220324835A1 (Nurix Therapeutics, Inc., priority 2018, published 2022)

Tests used:
[1] = target: T1, Cbl-b (Homo sapiens, UniProt Q13191); test: Cbl-b inhibition assay (Cbl-b activity assay, FRET, Biological Example 1; 100 mM NaCl, 60 nM Src kinase); format: biochemical; conditions: upper bound stated in text lists; read-out: IC50 values in the Cbl-b inhibition assay of Biological Example 1
In short: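 Steps: Src kinase phosphorylates N-terminal biotinylated Avi-tagged Cbl-b; phosphorylated Cbl-b binds Bodipy-fluorescein ubiquitin-loaded UbcH5B; streptavidin-terbium on Cbl-b sits close to the fluorescein label, producing FRET. Inhibitors block UbcH5B-Ub binding.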

[2] = tested on: T-cell; test: IL-2 secretion from T-cells co-stimulated with anti-CD3 and anti-CD28 antibody (Biological Example 2); format: cell-based, human; conditions: Homo sapiens, T-cell, primary human total T-cells, baseline = anti-CD3/anti-CD28 stimulated cells without inhibitor, read-out: IL-2 secretion, Anti-CD3/Anti-CD28 stimulation, fold change over baseline; for fold induction at 0.3 µM: 0.3 μM compound; for fold induction at 1 µM: 1 μM compound; for fold induction at 4 µM: 4 μM compound
In short: (§1)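 No assay protocol given; T-cells stimulated with anti-CD3 alone or anti-CD3 plus anti-CD28, with or without Cbl-b inhibitor. Activation read as IL-2 secretion or CD25 surface staining, expressed as fold over baseline from uninhibited cells […].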

[3] = tested on: T-cell; test: CD25 cell surface staining on T-cells co-stimulated with anti-CD3 and anti-CD28 antibody (Biological Example 2); format: cell-based, human; conditions: Homo sapiens, T-cell, primary human total T-cells, baseline = anti-CD3/anti-CD28 stimulated cells without inhibitor, read-out: CD25 staining, Anti-CD3/Anti-CD28 stimulation, fold change over baseline; for fold induction at 0.3 µM: 0.3 μM compound; for fold induction at 1 µM: 1 μM compound; for fold induction at 4 µM: 4 μM compound
In short: as §1

[4] = target: T1, Cbl-b; test: Cbl-b activity assay (Cbl-b inhibition assay), TR-FRET of Cbl-b interaction with UbcH5B-Ub; format: biochemical; conditions: assay buffer with 100 mM NaCl, 60 nM Src kinase; read-out: Cbl-b activity IC50
In short: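 TR-FRET readout of Cbl-b binding to Bodipy-fluorescein N-terminally labeled Ub conjugated to UbcH5B C85K, measured with compound present. After compound incubation, 60 nM Src kinase with 1 mM ATP and 5 mM MgCl2 (final) was added for 1.5 h, then a further 1 h incubation; asterisked values used 50 mM NaCl buffer and 30 nM Src.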

[5] = tested on: T-cell; test: IL-2 secretion from T-cells stimulated with anti-CD3 antibody alone (Biological Example 2); format: cell-based; conditions: primary human total T-cells, read-out: IL-2 secretion, Anti-CD3 stimulation, fold change over baseline; for fold induction at 1 µM: 1 μM compound; for fold induction at 8 µM: 8 μM compound
[6] = tested on: T-cell; test: CD25 cell surface staining on T-cells stimulated with anti-CD3 antibody alone (Biological Example 2); format: cell-based; conditions: primary human total T-cells, baseline = anti-CD3/anti-CD28 stimulated cells without inhibitor, read-out: CD25 staining, Anti-CD3 stimulation, fold change over baseline; for fold induction at 1 µM: 1 μM compound; for fold induction at 8 µM: 8 μM compound

T1 sequence (Q13191 36-427): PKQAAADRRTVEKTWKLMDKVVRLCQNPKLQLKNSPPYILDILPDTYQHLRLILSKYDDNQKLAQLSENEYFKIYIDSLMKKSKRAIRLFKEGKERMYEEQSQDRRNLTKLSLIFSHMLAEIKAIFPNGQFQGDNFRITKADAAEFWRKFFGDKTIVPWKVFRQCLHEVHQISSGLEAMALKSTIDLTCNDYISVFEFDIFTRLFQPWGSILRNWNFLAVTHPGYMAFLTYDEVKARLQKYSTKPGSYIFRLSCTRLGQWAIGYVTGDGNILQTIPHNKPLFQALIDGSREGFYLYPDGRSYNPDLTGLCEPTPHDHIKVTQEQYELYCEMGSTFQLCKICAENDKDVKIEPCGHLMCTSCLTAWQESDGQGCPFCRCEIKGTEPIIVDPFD

Row | Structure (SMILES) | IC50 [1] | fold induction at 0.3 µM [2] | fold induction at 1 µM [2] | fold induction at 0.3 µM [3] | fold induction at 1 µM [3] | IC50 [4] | fold induction at 1 µM [5] | fold induction at 1 µM [6] | fold induction at 4 µM [2] | fold induction at 4 µM [3] | fold induction at 8 µM [5] | fold induction at 8 µM [6]
1 | CN1CC2CCC1CN2c1cc2c(c(C(F)(F)F)c1)CN(c1cccc(C3(Cc4nncn4C)COC3)c1)C2=O (stereo not shown) [Compound 387, 2-(3-(3-((4-Methyl-4H-1,2,4-triazol-3-yl)methyl)oxetan-3-yl)phenyl)-6-(5-methyl-2,5-diazabicyclo[2.2.2]octan-2-yl)-4-(trifluoromethyl)isoindolin-1-one] | ≤ 100 nM | 2.51 to 5 | 5 to 7.5 | 1.01 to 1.3 | 1.31 to 1.5 | < 100 nM | > 0.201 | 0.801 to 1 |  |  |  | 
2 | C[C@@H](c1cc2c(c(C(F)(F)F)c1)CN(c1cccc(C3(Cc4nncn4C)COC3)c1)C2=O)N1CC(C)(F)C1 [Compound 543a, (S)-6-(1-(3-fluoro-3-methylazetidin-1-yl)ethyl)-2-(3-(3-((4-methyl-4H-1,2,4-triazol-3-yl)methyl)oxetan-3-yl)phenyl)-4-(trifluoromethyl)isoindolin-1-one] | ≤ 100 nM | 2.51 to 5 | > 7.5 | 1.31 to 1.5 | 1.51 to 1.75 | < 100 nM | > 0.201 | > 1 |  |  |  | 
3 | Cn1cnnc1CC1(c2cccc(NC(=O)c3nc(C4CC4)cs3)c2)COC1 [Compound 493, 4-cyclopropyl-N-(3-{3-[(4-methyl-1,2,4-triazol-3-yl)methyl]oxetan-3-yl}phenyl)-1,3-thiazole-2-carboxamide] | ≤ 1000 nM | < 1 | 1.01 to 2.5 | 1.01 to 1.3 | 1.01 to 1.3 | 301 to 1000 nM | < 0.05 | < 0.6 |  |  |  | 
4 | C[C@@H](c1cc2c(c(C(F)(F)F)c1)CN(c1cccc(C3(Cc4nncn4C)COC3)c1)C2=O)N1CCC2(CC1)CC2 [Example 558a, (S)-6-(1-(6-azaspiro[2.5]octan-6-yl)ethyl)-2-(3-(3-((4-methyl-4H-1,2,4-triazol-3-yl)methyl)oxetan-3-yl)phenyl)-4-(trifluoromethyl)isoindolin-1-one] | ≤ 100 nM | > 7.5 | > 7.5 | 1.01 to 1.3 | 1.01 to 1.3 | < 100 nM | > 0.201 | > 1 |  |  |  | 
5 | Cn1cnnc1C(F)(F)[C@](C)(F)c1cccc(N2Cc3c(cc(-c4cncc(F)c4)cc3C(F)(F)F)C2=O)c1 [Compound 440, (R)-6-(5-fluoropyridin-3-yl)-2-(3-(1,1,2-trifluoro-1-(4-methyl-4H-1,2,4-triazol-3-yl)propan-2-yl)phenyl)-4-(trifluoromethyl)isoindolin-1-one] | ≤ 300 nM | 1.01 to 2.5 | 2.51 to 5 | < 1 | 1.01 to 1.3 | 100 to 300 nM | 0.101 to 0.15 | 0.601 to 0.8 | 2.51 to 5 | 1.01 to 1.3 | 0.151 to 0.2 | 0.801 to 1
6 | Cc1conc1CC1(c2cccc(N3Cc4c(cc(CN5CCC6(CC6)C5)cc4C(F)(F)F)C3=O)c2)COC1 [Compound 535, 6-{5-azaspiro[2.4]heptan-5-ylmethyl}-2-(3-{3-[(4-methyl-1,2-oxazol-3-yl)methyl]oxetan-3-yl}phenyl)-4-(trifluoromethyl)-3H-isoindol-1-one] | ≤ 100 nM | > 7.5 | > 7.5 | 1.31 to 1.5 | 1.31 to 1.5 | < 100 nM | > 0.201 | > 1 |  |  |  | 
7 | CCOc1cc([C@@](C)(F)C(F)(F)c2nncn2C)cc(NC(=O)c2cc(C)nc(C3CC3)n2)n1 [Compound 469, 2-cyclopropyl-N-{6-ethoxy-4-[(2R)-1,1,2-trifluoro-1-(4-methyl-4H-1,2,4-triazol-3-yl)propan-2-yl]pyridin-2-yl}-6-methylpyrimidine-4-carboxamide] | ≤ 300 nM | 1.01 to 2.5 | 1.01 to 2.5 | 1.01 to 1.3 | 1.01 to 1.3 | 100 to 300 nM | 0.101 to 0.15 | 0.801 to 1 |  |  |  | 
8 | Cn1cnnc1[C@@H]1C[C@@H]1c1cccc(N2Cc3c(cc(CN4CC[C@H](F)C4)cc3C(F)(F)F)C2=O)c1 [Compound 409, 6-(((S)-3-fluoropyrrolidin-1-yl)methyl)-2-(3-((1S,2R)-2-(4-methyl-4H-1,2,4-triazol-3-yl)cyclopropyl)phenyl)-4-(trifluoromethyl)isoindolin-1-one] | ≤ 100 nM | 2.51 to 5 | > 7.5 | 1.31 to 1.5 | 1.31 to 1.5 | < 100 nM | > 0.201 | > 1 | > 7.5 | 1.51 to 1.75 | > 0.201 | > 1
9 | C[C@@H]1CN(C)CCN1c1cc2c(c(C(F)(F)F)c1)CN(c1cccc(C3(Cc4nncn4C)COC3)c1)C2=O [Compound 390, (R)-6-(2,4-Dimethylpiperazin-1-yl)-2-(3-(3-((4-methyl-4H-1,2,4-triazol-3-yl)methyl)oxetan-3-yl)phenyl)-4-(trifluoromethyl)isoindolin-1-one] | ≤ 100 nM | 2.51 to 5 | > 7.5 | 1.01 to 1.3 | 1.31 to 1.5 | < 100 nM | 0.151 to 0.2 | > 1 |  |  |  | 
10 | C[C@H](c1cc2c(c(C(F)(F)F)c1)CN(c1cccc(C3(Cc4nncn4C)COC3)c1)C2=O)N1CC(C)(F)C1 [Compound 543b, (R)-6-(1-(3-fluoro-3-methylazetidin-1-yl)ethyl)-2-(3-(3-((4-methyl-4H-1,2,4-triazol-3-yl)methyl)oxetan-3-yl)phenyl)-4-(trifluoromethyl)isoindolin-1-one] | ≤ 100 nM | 5 to 7.5 | > 7.5 | 1.51 to 1.75 | 1.51 to 1.75 | < 100 nM | > 0.201 | > 1 |  |  |  | 
11 | CC[C@@H](c1cc2c(c(C(F)(F)F)c1)CN(c1cccc(C3(Cc4nncn4C)COC3)c1)C2=O)N1CC[C@H](F)C1 [Example 545, 6-((S)-1-((S)-3-fluoropyrrolidin-1-yl)propyl)-2-(3-(3-((4-methyl-4H-1,2,4-triazol-3-yl)methyl)oxetan-3-yl)phenyl)-4-(trifluoromethyl)isoindolin-1-one] | ≤ 100 nM | > 7.5 | > 7.5 | 1.51 to 1.75 | 1.51 to 1.75 | < 100 nM | > 0.201 | > 1 |  |  |  | 
12 | Cn1cnnc1CC1(c2cccc(N3Cc4c(cc(CC5CCCO5)cc4C(F)(F)F)C3=O)c2)COC1 (stereo not shown) [Compound 529, 2-(3-(3-((4-methyl-4H-1,2,4-triazol-3-yl)methyl)oxetan-3-yl)phenyl)-6-((THF-2-yl)methyl)-4-(trifluoromethyl)isoindolin-1-one] | ≤ 100 nM | 2.51 to 5 | > 7.5 | 1.01 to 1.3 | 1.01 to 1.3 | < 100 nM | 0.101 to 0.15 | 0.801 to 1 |  |  |  | 
13 | Cn1cnnc1CC1(c2cccc(NC(=O)c3cc(OC(F)F)cc(C4CC4)n3)c2)COC1 [Compound 502, 6-cyclopropyl-4-(difluoromethoxy)-N-(3-{3-[(4-methyl-1,2,4-triazol-3-yl)methyl]oxetan-3-yl}phenyl)pyridine-2-carboxamide] | ≤ 100 nM | 5 to 7.5 | > 7.5 | 1.01 to 1.3 | 1.01 to 1.3 | < 100 nM | > 0.201 | > 1 |  |  |  | 
